These results are taken from ChEMBL document CHEMBL3508693 (2016).

A short description of data set [1]: % of radioactivity recovered as M6 from M4 in plasma following intravenous administration of [14C] aliskiren hemifumarate at 10 mg.Kg-1 level in rat. In kind it is ADME, organism-based, Albino HAN:WIST. Particulars: in vivo.
Data set [2] is described as follows: % aliskiren recovered as M6 from M4 of receiver rat following duodenal infusion of radioactivity through bile from donor rat treated with single intravenous administration of 10 mg.Kg-1 [14C] aliskiren hemifumarate. The following applies: in vivo. In kind it is ADME, organism-based, HAN:WIST(SPF).
Data set [3] is described as follows: % aliskiren hemifumarate recovered as M6 from M4 in faeces following single oral dose of 300 mg [14C]SPP100 studied in healthy men. It is filed as ADME, organism-based, Feces. The following applies: human, in vivo.
Data set [4] in a line: % aliskiren recovered as metabolite M6 in urine following 10 day repeated oral administration of [14C] aliskiren hemifumarate at 100 mg.Kg-1 level studied in rat. The following applies: in vivo, 240 h. It is filed as ADME, organism-based, Albino HAN:WIST.
The nature of data set [5]: % aliskiren hemifumarate recovered as M6 from M4 in urine following single oral dose of 300 mg [14C]SPP100 studied in healthy men. In kind it is ADME, organism-based. The following applies: human, in vivo, at 300 mg.
Data set [6] can be described thus: % of radioactivity recovered as M6 from M4 in faeces following intravenous administration of [14C] aliskiren hemifumarate at 10 mg.Kg-1 level in rat. In kind it is ADME, organism-based, Albino HAN:WIST, Feces. Particulars: in vivo.
Data set [7] can be described thus: % of radioactivity recovered as M6 from M4 in plasma following oral administration of [14C] aliskiren hemifumarate at 100 mg.Kg-1 level in rat. In kind it is ADME, organism-based, Albino HAN:WIST. Particulars: in vivo.
Data set [8] in a line: % of radioactivity recovered as M6 from M4 in urine following oral administration of [14C] aliskiren hemifumarate at 100 mg.Kg-1 level in rat. It is filed as ADME, organism-based, Albino HAN:WIST. Particulars: in vivo.
A short description of data set [9]: % aliskiren recovered as M6 from M4 in hydrolysed following single intravenous administration of 10 mg.Kg-1 [14C] aliskiren hemifumarate in male rat. In kind it is ADME, organism-based, HAN:WIST(SPF), Bile. The following applies: in vivo.
The nature of data set [10]: % aliskiren recovered as metabolite M6 in plasma following 10 day repeated oral administration of [14C] aliskiren hemifumarate at 100 mg.Kg-1 level studied in rat. In kind it is ADME, organism-based, Albino HAN:WIST. The following applies: in vivo, 240 h.
Data set [11] is described as follows: % aliskiren recovered as M6 from M4 in bile following single intravenous administration of 10 mg.Kg-1 [14C] aliskiren hemifumarate in male rat. It is filed as ADME, organism-based, HAN:WIST(SPF). Particulars: in vivo.
Data set [12] in a line: % of radioactivity recovered as M6 from M4 in urine following intravenous administration of [14C] aliskiren hemifumarate at 10 mg.Kg-1 level in rat. It is filed as ADME, organism-based, Albino HAN:WIST. The following applies: in vivo.
The nature of data set [13]: % aliskiren hemifumarate recovered as M6 from M4 in urine and faeces following single oral dose of 300 mg [14C]SPP100 studied in healthy men. Particulars: human, in vivo, at 300 mg. It is filed as ADME, organism-based, Urine/Feces.
Data set [14] can be described thus: % aliskiren recovered as M6 from M4 in urine following single intravenous administration of 10 mg.Kg-1 [14C] aliskiren hemifumarate in male rat. It is filed as ADME, organism-based, HAN:WIST(SPF). Particulars: in vivo.
Data set [15] can be described thus: % aliskiren recovered as metabolite M6 in faeces following 10 day repeated oral administration of [14C] aliskiren hemifumarate at 100 mg.Kg-1 level studied in rat. In kind it is ADME, organism-based, Albino HAN:WIST, Feces. Particulars: in vivo, 240 h.
The nature of data set [16]: % of radioactivity recovered as M6 from M4 in faeces following oral administration of [14C] aliskiren hemifumarate at 100 mg.Kg-1 level in rat. Particulars: in vivo. It is filed as ADME, organism-based, Albino HAN:WIST, Feces.
Data set [17] in a line: % aliskiren recovered as M5 from M1 in hydrolysed following single intravenous administration of 10 mg.Kg-1 [14C] aliskiren hemifumarate in male rat. The following applies: in vivo. It is filed as ADME, organism-based, HAN:WIST(SPF), Bile.
Data set [18] can be described thus: % of radioactivity recovered as M5 from M1 in plasma following intravenous administration of [14C] aliskiren hemifumarate at 10 mg.Kg-1 level in rat. It is filed as ADME, organism-based, Albino HAN:WIST. The following applies: in vivo.
A short description of data set [19]: % aliskiren recovered as M5 from M1 in urine following single intravenous administration of 10 mg.Kg-1 [14C] aliskiren hemifumarate in male rat. In kind it is ADME, organism-based, HAN:WIST(SPF). Particulars: in vivo.
The nature of data set [20]: % of radioactivity recovered as M5 from M1 in urine following oral administration of [14C] aliskiren hemifumarate at 100 mg.Kg-1 level in rat. In kind it is ADME, organism-based, Albino HAN:WIST. Particulars: in vivo.
Data set [21] is described as follows: % of radioactivity recovered as M5 from M1 in faeces following oral administration of [14C] aliskiren hemifumarate at 100 mg.Kg-1 level in rat. It is filed as ADME, organism-based, Albino HAN:WIST, Feces. The following applies: in vivo.
Data set [22] is described as follows: % aliskiren recovered as M5 from M1 in bile following single intravenous administration of 10 mg.Kg-1 [14C] aliskiren hemifumarate in male rat. In kind it is ADME, organism-based, HAN:WIST(SPF). Particulars: in vivo.
The nature of data set [23]: % of radioactivity recovered as M5 from M1 in faeces following intravenous administration of [14C] aliskiren hemifumarate at 10 mg.Kg-1 level in rat. It is filed as ADME, organism-based, Albino HAN:WIST, Feces. Particulars: in vivo.
Data set [24] is described as follows: % aliskiren recovered as M5 from M1 of receiver rat following duodenal infusion of radioactivity through bile from donor rat treated with single intravenous administration of 10 mg.Kg-1 [14C] aliskiren hemifumarate. It is filed as ADME, organism-based, HAN:WIST(SPF). The following applies: in vivo.
A short description of data set [25]: % of radioactivity recovered as M5 from M1 in urine following intravenous administration of [14C] aliskiren hemifumarate at 10 mg.Kg-1 level in rat. In kind it is ADME, organism-based, Albino HAN:WIST. Particulars: in vivo.
Data set [26] is described as follows: % of radioactivity recovered as M5 from M1 in plasma following oral administration of [14C] aliskiren hemifumarate at 100 mg.Kg-1 level in rat. In kind it is ADME, organism-based, Albino HAN:WIST. Particulars: in vivo.

For the compound `COc1ccc(C[C@@H](C[C@H](N)[C@@H](O)C[C@H](C(=O)NCC(C)(C)C(N)=O)C(C)C)C(C)C)cc1O[C@@H]1O[C@H](CO)[C@@H](O)[C@H](O)[C@H]1O`, the Compound recovery entry in data set [1] was “<= 2%”; in [2] it was 8.9%; in [3] it was “OUTCOME = Not detected”; in data set [4], “OUTCOME = Observed, VALUE = Minor amounts”; in [5] it was under 0.1%; in data set [6], “OUTCOME = Not detected or not investigated”. For the same compound, the Compound recovery is on record as over 2% in data set [7]; “<= 2%” in data set [8]; “OUTCOME = Not detected” in data set [9]; “OUTCOME = Observed, VALUE = Minor amounts” in [10]; 5% in data set [11]; “OUTCOME = Not detected or not investigated” in [12]. In addition, the Compound recovery in [13] is under 0.1%; in [14] it was 3.2%; in [15], “OUTCOME = Observed, VALUE = Minor amounts”; in data set [16] it was “OUTCOME = Not detected or not investigated”.

With `COCCCOc1cc(C[C@@H](C[C@H](N)[C@@H](O)C[C@H](C(=O)NCC(C)(C)C(N)=O)C(C)C)C(C)C)ccc1O[C@@H]1O[C@H](CO)[C@@H](O)[C@H](O)[C@H]1O`, the Compound recovery entry in data set [17] is on record as “OUTCOME = Not detected”; in data set [18], “<= 2%”; in data set [19] it was 3.2%; in [20], “<= 2%”; in [21], “OUTCOME = Not detected or not investigated”; in data set [22], 5%. Besides, the Compound recovery entry in [23] is “OUTCOME = Not detected or not investigated”; in data set [24], 8.9%; in data set [25] it was “OUTCOME = Not detected or not investigated”; in data set [26] it was over 2%.
